pIC50: −log10 of the molar value.
Assays:
Histone deacetylase 1 = Histone deacetylase 1 (Homo sapiens, UniProt Q13547); assay: Inhibition of HDAC1 (unknown origin) using Boc-Lys(Ac)-AMC as substrate by fluorescence assay
cells [1] = type: functional; conditions: Homo sapiens, HCT-116, 72 h
Description: Growth inhibition of human HCT116 cells after 72 hrs by CellTiter Glo assay

cells [2] = type: functional; conditions: Homo sapiens, HL-60, 72 h
Description: Growth inhibition of human HL60 cells after 72 hrs by CellTiter Glo assay

cells [3] = type: functional; conditions: Homo sapiens, PC-3, 72 h
Description: Growth inhibition of human PC3 cells after 72 hrs by CellTiter Glo assay

HCT-116 = assay: Ratio of vorinostat IC50 to compound IC50 for human HCT116 cells after 72 hrs by CellTiter Glo assay; type: functional
[4] = Antitumor activity against human HCT116 cells xenografted in mouse assessed as tumor growth reduction at 50 mg/kg, po qd for 3 weeks relative to vehicle-treated control; type: functional; conditions: HCT-116, 504 h, read-out: TGI
hERG (KCNH2) = hERG (KCNH2) (Homo sapiens, UniProt Q12809); assay: Inhibition of human ERG at 10 uM
Sequence of hERG (KCNH2) (Q12809 whole entry): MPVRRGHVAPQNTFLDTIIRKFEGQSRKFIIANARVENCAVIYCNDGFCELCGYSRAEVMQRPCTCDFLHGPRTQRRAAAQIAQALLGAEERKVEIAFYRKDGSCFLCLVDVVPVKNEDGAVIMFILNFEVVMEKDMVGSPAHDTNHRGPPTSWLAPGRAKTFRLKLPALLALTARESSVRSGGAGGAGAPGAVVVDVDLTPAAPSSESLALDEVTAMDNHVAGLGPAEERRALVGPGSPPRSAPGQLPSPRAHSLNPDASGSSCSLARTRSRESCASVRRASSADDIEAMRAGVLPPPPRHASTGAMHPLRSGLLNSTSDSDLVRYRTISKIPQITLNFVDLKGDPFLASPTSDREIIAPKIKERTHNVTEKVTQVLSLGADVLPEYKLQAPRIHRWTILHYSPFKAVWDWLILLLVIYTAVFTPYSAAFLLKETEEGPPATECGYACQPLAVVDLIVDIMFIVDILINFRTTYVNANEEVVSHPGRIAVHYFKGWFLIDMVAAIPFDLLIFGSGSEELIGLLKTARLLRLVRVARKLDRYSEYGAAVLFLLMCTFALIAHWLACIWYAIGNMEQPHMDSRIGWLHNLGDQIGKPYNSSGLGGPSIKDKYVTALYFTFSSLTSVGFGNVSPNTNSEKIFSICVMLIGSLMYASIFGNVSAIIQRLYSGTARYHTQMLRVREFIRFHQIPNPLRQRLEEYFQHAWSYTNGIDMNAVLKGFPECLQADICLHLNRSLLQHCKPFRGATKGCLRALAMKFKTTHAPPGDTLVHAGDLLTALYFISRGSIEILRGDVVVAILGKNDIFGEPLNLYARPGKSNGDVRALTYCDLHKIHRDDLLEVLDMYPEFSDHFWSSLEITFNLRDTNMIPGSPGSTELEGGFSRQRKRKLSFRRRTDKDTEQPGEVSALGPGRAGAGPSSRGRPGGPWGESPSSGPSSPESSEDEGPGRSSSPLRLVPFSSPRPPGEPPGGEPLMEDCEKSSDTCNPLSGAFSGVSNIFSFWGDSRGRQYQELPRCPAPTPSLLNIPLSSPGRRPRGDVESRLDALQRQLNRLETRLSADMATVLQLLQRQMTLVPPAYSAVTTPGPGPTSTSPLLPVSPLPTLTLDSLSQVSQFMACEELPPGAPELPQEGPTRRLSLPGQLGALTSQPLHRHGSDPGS

[5] = Antitumor activity against human HCT116 cells xenografted in mouse assessed as tumor growth reduction at 75 mg/kg, po qd as intermittent dosing schedule with 3 days on plus 3 days off for 3 weeks relative to vehicle-treated control; type: functional; conditions: HCT-116, read-out: TGI
[6] = Antitumor activity against human HCT116 cells xenografted in mouse assessed as tumor growth reduction at 200 mg/kg, po qd measured after 10 days relative to vehicle-treated control; type: functional; conditions: HCT-116, 240 h, read-out: TGI
Mus musculus [7] = assay: Toxicity in human HCT116 cells xenografted mouse assessed as body weight loss at 50 mg/kg, po qd for 3 weeks relative to vehicle-treated control; type: organism-based, HCT-116; set-up: dose 50 mg/kg, route oral; conditions: in vivo, 504 h
Mus musculus [8] = assay: Toxicity in human HCT116 cells xenografted mouse at 200 mg/kg, po qd measured after 10 days relative to vehicle-treated control; type: organism-based, HCT-116; set-up: dose 200 mg/kg, route oral; conditions: in vivo, 240 h
Mus musculus [9] = assay: Toxicity in human HCT116 cells xenografted mouse assessed as body weight loss at 50 mg/kg, po qd as intermittent dosing schedule with 3 days on plus 3 days off for 3 weeks relative to vehicle-treated control; type: organism-based, HCT-116; set-up: dose 50 mg/kg, route oral; conditions: in vivo

Sequence of Histone deacetylase 1 (Q13547 whole entry): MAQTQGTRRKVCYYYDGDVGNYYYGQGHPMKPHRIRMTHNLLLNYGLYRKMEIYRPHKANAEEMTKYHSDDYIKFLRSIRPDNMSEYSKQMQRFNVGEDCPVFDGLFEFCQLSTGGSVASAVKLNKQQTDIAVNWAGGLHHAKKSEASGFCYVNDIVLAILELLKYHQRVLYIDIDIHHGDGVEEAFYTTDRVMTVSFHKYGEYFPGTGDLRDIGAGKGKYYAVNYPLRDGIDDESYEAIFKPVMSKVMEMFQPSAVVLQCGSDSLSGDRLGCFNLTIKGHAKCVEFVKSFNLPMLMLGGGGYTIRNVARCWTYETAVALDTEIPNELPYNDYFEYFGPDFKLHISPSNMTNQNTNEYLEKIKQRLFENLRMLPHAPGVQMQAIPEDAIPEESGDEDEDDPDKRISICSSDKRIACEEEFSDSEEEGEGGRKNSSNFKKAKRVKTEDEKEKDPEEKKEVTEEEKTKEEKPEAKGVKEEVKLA

SMILES | pIC50 (Histone deacetylase 1) | GI50 (cells [1]) | other results
O=C(NO)c1ccc(N2CCN(c3cccnc3)C2=O)cc1 | 6.74 |  | 
O=C(NO)c1ccc(N2CCN(c3cnc4ccccc4c3)C2=O)cc1 | 6.82 |  | 
O=C(NO)c1ccc(N2CCN(Cc3ccc(C(F)(F)F)cc3)C2=O)cc1 | 7.10 |  | 
O=C(NO)c1ccc(N2CCN(Cc3ccncc3)C2=O)cc1 | 7.39 |  | 
O=C(NO)c1ccc(N2CCN(Cc3cccnc3)C2=O)cc1 | 7.38 |  | 
CN(C)Cc1cccc(CN2CCN(c3ccc(C(=O)NO)cc3)C2=O)c1 | 7.64 |  | 
CN(C)Cc1ccc(CN2CCN(c3ccc(C(=O)NO)cc3)C2=O)cc1 | 7.60 |  | 
CC(C)CN1CCN(c2ccc(C(=O)NO)cc2)C1=O | 6.60 |  | 
O=C(NO)c1ccc(N2CCN(CCCN3CCOCC3)C2=O)cc1 | 6.90 |  | 
O=C(NO)c1ccc(N2CCN(CCCN3CCCC3)C2=O)cc1 | 6.94 |  | 

These reach a higher pIC50 (Histone deacetylase 1). Values come first.

pIC50 (Histone deacetylase 1) | SMILES | GI50 (cells [1]) | other results
7.68 | O=C(NO)c1ccc(N2CCN(Cc3ccc(F)cc3)C2=O)cc1 |  | 
7.77 | O=C(NO)c1ccc(N2CCN(Cc3ccccc3)C2=O)cc1 | 850 nM | 
7.89 | O=C(NO)c1ccc(N2CCN(CCc3ccccc3)C2=O)cc1 | 650 nM | 
7.92 | COc1ccc(CN2CCN(c3ccc(C(=O)NO)cc3)C2=O)cc1 | 470 nM | 
8.02 | CN(C)c1cccc(CN2CCN(c3ccc(C(=O)NO)cc3)C2=O)c1 | 330 nM | GI50 (cells [2]): 440 nM; GI50 (cells [3]): 430 nM
8.02 | O=C(NO)c1ccc(N2CCN(Cc3cccc4ccccc34)C2=O)cc1 |  | 
8.27 | O=C(NO)c1ccc(N2CCN(Cc3ccc4ccccc4c3)C2=O)cc1 | 210 nM | GI50 (cells [2]): 360 nM; GI50 (cells [3]): 380 nM
8.27 | O=C(NO)c1ccc(N2CCN(Cc3cccc4ncccc34)C2=O)cc1 | 270 nM | GI50 (cells [2]): 250 nM; GI50 (cells [3]): 340 nM
8.40 | Cn1cc(CCN2CCN(c3ccc(C(=O)NO)cc3)C2=O)c2ccccc21 | 240 nM | GI50 (cells [2]): 480 nM; GI50 (cells [3]): 210 nM
8.57 | CCN(CC)Cc1ccc2cc(CN3CCN(c4ccc(C(=O)NO)cc4)C3=O)ccc2c1 | 110 nM | Ratio IC50 (HCT-116): 6; inhibition in vivo at 50 mg/kg [4]: 45%; GI50 (cells [2]): 86 nM; inhibition at 10 µM (hERG (KCNH2)): 27%; inhibition in vivo at 75 mg/kg [5]: 54%; GI50 (cells [3]): 100 nM; inhibition in vivo at 200 mg/kg [6]: 50%; Activity (Mus musculus [7]): < 15%; Activity (Mus musculus [8]): Toxic; Activity (Mus musculus [9]): < 15%
